In PubChem BioAssay AID1259407 (Chemical Carcinogenesis Research Information System (CCRIS), 2018):
Active and inactive are the calls of the source. How the calls were made is not given here.

Test system: CCRIS mutagenicity, Ames/micronucleus/aberration tests
Test: CCRIS mutagenicity studies
[1] = Test System: AMES SALMONELLA TYPHIMURIUM, Strain/Indicator: TA98, Metabolic Activation: NONE, Method: STANDARD PLATE
[2] = Test System: AMES SALMONELLA TYPHIMURIUM, Strain/Indicator: TA100, Metabolic Activation: NONE, Method: STANDARD PLATE
[3] = Test System: AMES SALMONELLA TYPHIMURIUM, Strain/Indicator: TA1535, Metabolic Activation: NONE, Method: STANDARD PLATE

COc1cccc2c1CC([N+](=O)[O-])c1ccc3c(c1-2)OCO3 (centres undefined)
mutagenic call (Test System: AMES SALMONELLA TYPHIMURIUM, Strain/Indicator: D3052, Metabolic Activation: NONE, Method: STANDARD PLATE): inactive; negative
mutagenic call (Test System: AMES SALMONELLA TYPHIMURIUM, Strain/Indicator: D3052, Metabolic Activation: RAT, LIVER, S-9, PHENOBARBITAL, Method: STANDARD PLATE): inactive; negative
mutagenic call (Test System: AMES SALMONELLA TYPHIMURIUM, Strain/Indicator: G46, Metabolic Activation: NONE, Method: STANDARD PLATE): inactive; negative
mutagenic call (Test System: AMES SALMONELLA TYPHIMURIUM, Strain/Indicator: G46, Metabolic Activation: RAT, LIVER, S-9, PHENOBARBITAL, Method: STANDARD PLATE): inactive; negative
mutagenic call [1]: active; positive
mutagenic call (Test System: AMES SALMONELLA TYPHIMURIUM, Strain/Indicator: TA98, Metabolic Activation: RAT, LIVER, S-9, PHENOBARBITAL, Method: STANDARD PLATE): active; positive
mutagenic call [2]: active; positive
mutagenic call (Test System: AMES SALMONELLA TYPHIMURIUM, Strain/Indicator: TA100, Metabolic Activation: RAT, LIVER, S-9, PHENOBARBITAL, Method: STANDARD PLATE): active; positive
mutagenic call [3]: active; positive
mutagenic call (Test System: AMES SALMONELLA TYPHIMURIUM, Strain/Indicator: TA1535, Metabolic Activation: RAT, LIVER, S-9, PHENOBARBITAL, Method: STANDARD PLATE): active; positive
mutagenic call (Test System: AMES SALMONELLA TYPHIMURIUM, Strain/Indicator: TA1978, Metabolic Activation: NONE, Method: STANDARD PLATE): inactive; negative
mutagenic call (Test System: AMES SALMONELLA TYPHIMURIUM, Strain/Indicator: TA1978, Metabolic Activation: RAT, LIVER, S-9, PHENOBARBITAL, Method: STANDARD PLATE): inactive; negative

[Cl][Ga]([Cl])[Cl]
mutagenic call (Test System: AMES SALMONELLA TYPHIMURIUM, Strain/Indicator: TA98, Metabolic Activation: NONE, Method: PREINCUBATION): inactive; negative
mutagenic call (Test System: AMES SALMONELLA TYPHIMURIUM, Strain/Indicator: TA98, Metabolic Activation: RAT, LIVER, S-9 (10%), Method: PREINCUBATION): inactive; negative
mutagenic call (Test System: AMES SALMONELLA TYPHIMURIUM, Strain/Indicator: TA100, Metabolic Activation: NONE, Method: PREINCUBATION): inactive; negative
mutagenic call (Test System: AMES SALMONELLA TYPHIMURIUM, Strain/Indicator: TA100, Metabolic Activation: RAT, LIVER, S-9 (10%), Method: PREINCUBATION): inactive; negative

NC1CCC(N)CC1 (centres undefined)
mutagenic call (Test System: AMES SALMONELLA TYPHIMURIUM, Strain/Indicator: TA97, Metabolic Activation: NONE, Method: STANDARD PLATE): inactive; negative
mutagenic call (Test System: AMES SALMONELLA TYPHIMURIUM, Strain/Indicator: TA97, Metabolic Activation: RAT, LIVER, S-9, Method: STANDARD PLATE): inactive; negative
mutagenic call [1]: inactive; negative
mutagenic call (Test System: AMES SALMONELLA TYPHIMURIUM, Strain/Indicator: TA98, Metabolic Activation: RAT, LIVER, S-9, Method: STANDARD PLATE): inactive; negative
mutagenic call [2]: inactive; negative
mutagenic call (Test System: AMES SALMONELLA TYPHIMURIUM, Strain/Indicator: TA100, Metabolic Activation: RAT, LIVER, S-9, Method: STANDARD PLATE): inactive; negative
mutagenic call [3]: inactive; negative
mutagenic call (Test System: AMES SALMONELLA TYPHIMURIUM, Strain/Indicator: TA1535, Metabolic Activation: RAT, LIVER, S-9, Method: STANDARD PLATE): inactive; negative

CC(=O)OC[C@]12CCC(C)=C[C@H]1O[C@@H]1[C@H](O)[C@@H](OC(C)=O)[C@@]2(C)[C@]12CO2
mutagenic call (Test System: AMES SALMONELLA TYPHIMURIUM, Strain/Indicator: TA98, Metabolic Activation: RAT, LIVER, MICROSOMES, PHENOBARBITAL, Method: STANDARD PLATE): inactive; negative
mutagenic call [2]: inactive; negative
mutagenic call (Test System: AMES SALMONELLA TYPHIMURIUM, Strain/Indicator: TA100, Metabolic Activation: RAT, LIVER, MICROSOMES, PHENOBARBITAL, Method: STANDARD PLATE): inactive; negative

Nc1ccc2ccc3ccccc3c2c1
mutagenic call (Test System: AMES SALMONELLA TYPHIMURIUM, Strain/Indicator: TA98, Metabolic Activation: RAT, LIVER, S-9, AROCLOR 1254 (2 OR 4%), Method: STANDARD PLATE): active; positive
mutagenic call (Test System: AMES SALMONELLA TYPHIMURIUM, Strain/Indicator: TA100, Metabolic Activation: RAT, LIVER, S-9, AROCLOR 1254 (2%), Method: STANDARD PLATE): active; positive
mutagenic call (Test System: AMES SALMONELLA TYPHIMURIUM, Strain/Indicator: TA1535, Metabolic Activation: RAT, LIVER, S-9, AROCLOR 1254 (2%), Method: STANDARD PLATE): active; positive
mutagenic call (Test System: AMES SALMONELLA TYPHIMURIUM, Strain/Indicator: TA1537, Metabolic Activation: RAT, LIVER, S-9, AROCLOR 1254 (2%), Method: STANDARD PLATE): active; positive

CN(N=O)C(=O)Nc1ccc(F)cc1
mutagenic call (End Point: IN VITRO CHROMOSOMAL ABERRATIONS, Test System: CHINESE HAMSTER V79-E CELLS, Metabolic Activation: NONE): active; weakly positive

CN(N=O)C(CCC(=O)O)c1cccnc1 (centres undefined)
mutagenic call (Test System: UDS RODENT HEPATOCYTES, Metabolic Activation: NONE): inactive; negative

CP1(C)=NP(C)(C)=NP(C)(C)=N1
mutagenic call [1]: inactive; negative
mutagenic call (Test System: AMES SALMONELLA TYPHIMURIUM, Strain/Indicator: TA98, Metabolic Activation: RAT, LIVER, S-9, AROCLOR 1254, Method: STANDARD PLATE): inactive; negative
mutagenic call [2]: inactive; negative
mutagenic call (Test System: AMES SALMONELLA TYPHIMURIUM, Strain/Indicator: TA100, Metabolic Activation: RAT, LIVER, S-9, AROCLOR 1254, Method: STANDARD PLATE): inactive; negative

Nc1cc(N)cc(C(=O)O)c1
mutagenic call (End Point: IN VITRO CHROMOSOMAL ABERRATIONS, Test System: CHL CELLS, Metabolic Activation: RAT, LIVER, S-9, SODIUM PHENOBARBITAL AND 5,6-BENZOFLAVONE): inactive; negative
mutagenic call (End Point: IN VITRO MICRONUCLEUS, Test System: CHL/IU CELLS, Metabolic Activation: RAT, LIVER, S-9, PHENOBARBITAL AND 5,6-BENZOFLAVONE): inactive; negative
mutagenic call (Test System: UDS RODENT HEPATOCYTES, Strain/Indicator: THY INCORP (NON-S-PHASE), Metabolic Activation: NONE, Method: AUTORADIOGRAPHY): active; positive

OCc1cc2ccccc2c2ccc3ccccc3c12
mutagenic call (Test System: AMES SALMONELLA TYPHIMURIUM, Strain/Indicator: TA98, Metabolic Activation: RAT, LIVER, CYTOSOL AND PAPS GENERATING SYSTEM, Method: PREINCUBATION): active; positive
mutagenic call (Test System: AMES SALMONELLA TYPHIMURIUM, Strain/Indicator: TA98, Metabolic Activation: RAT, LIVER, S-9 AND NADPH GENERATING SYSTEM, Method: PREINCUBATION): inactive; negative

CCCCCCC[CH2][Sn]([Cl])([Cl])[CH2]CCCCCCC
mutagenic call (Test System: CHINESE HAMSTER V-79, Strain/Indicator: V-79/8-AZAGUANINE, Metabolic Activation: NONE): active; positive
mutagenic call (Test System: CHINESE HAMSTER V-79, Strain/Indicator: V-79/8-AZAGUANINE, Metabolic Activation: RAT HEPATOCYTES): inactive; negative
